Among the data in patent US20080125454A1, “Methods and Compositions for Treatment of Scleritis and Related Disorders” (Wyeth, priority 2006, published 2008) are inhibition values, retold here.

This experiment deals with T1, P-selectin binding to P-selectin glycoprotein ligand-1 (PSGL-1) (Homo sapiens, UniProt P16109).
T1 construct: truncated form of human P-selectin comprised of the lectin and EGF domains (P-LE)
T1 sequence (P16109 42-198): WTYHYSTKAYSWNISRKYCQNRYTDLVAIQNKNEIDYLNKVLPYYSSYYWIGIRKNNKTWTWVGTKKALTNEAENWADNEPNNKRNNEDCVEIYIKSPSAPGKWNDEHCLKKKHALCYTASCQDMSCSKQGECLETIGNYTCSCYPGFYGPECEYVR
Kind of experiment: Biacore inhibition of P-selectin binding to PSGL-1 (P-LE binding to immobilized SGP-3). The note with it: 1 mM; read-out: percent inhibition of binding (positive control). The protocol:
Compounds of the present teachings can be assayed for selectin inhibitory activity using any of the procedures known in the art. One convenient procedure is the determination of IC50 values for inhibition of P-selectin binding to P-selectin glycoprotein ligand-1 (PSGL-1) using a Biacore instrument.
The Biacore 3000 is an instrument that uses surface plasmon resonance to detect binding of a solution phase analyte to an immobilized ligand on a sensor chip surface. The analyte sample is injected under flow using a microfluidic system. Binding of analyte to ligand causes a change in the angle of refracted light at the surface of the sensor chip, measured by the Biacore instrument in resonance units (RUs).
SGP-3 is a purified sulfoglycopeptide form of human PSGL-1 that contains the P-selectin binding determinants (See Somers et al., 2000, Cell 103, 467-479). […]
The Biacore assay measures the signal in RU produced by binding of P-LE to SGP-3 in the presence and absence of inhibitors. Percent inhibition of binding is calculated by dividing the inhibited signal by the uninhibited signal subtracting this value from one then multiplying by one hundred. […] The data from this titration are plotted, RU values vs. concentration, and the IC50 is determined by extrapolation from the plot. […]
A general note: Surface plasmon resonance follows binding to a sensor surface in real time, without labels.

Take `CC1(C)[C@@H](O[C@H]2O[C@H](C(=O)O)[C@@H](O)[C@H](O)[C@H]2O[C@@H]2O[C@H](C(=O)O)[C@@H](O)[C@H](O)[C@H]2O)CC[C@]2(C)[C@H]3C(=O)C=C4[C@@H]5C[C@@](C)(C(=O)O)CC[C@]5(C)CC[C@@]4(C)[C@]3(C)CC[C@@H]12` [Glycyrrhizin]: the inhibition at 1000 µM came to 50%.

For orientation: inhibition means the relative decrease from the control value, in per cent.
